In US9138659B2, “Compositions, methods, and systems relating to controlled crystallization and/or nucleation of molecular species” (Massachusetts Institute of Technology, priority 2010, dated 2015):
“And” between values parts separate entries of the source, which are not always exact repeats. Equal values may be shown once.

Key:
[1] = ROY nucleation induction time with PEGMDA microgels in ethanol; format: physicochemical; settings: ROY Form R; without microgels
[2] = Preferred orientation of ROY crystals on PEGMDA polymer films by XRD; format: physicochemical
From the text: The ROY-polymer interactions were probed via preferred crystal orientations on flat PEGMDA films. From the bulk solution, ROY crystallized in Form Y predominantly. In comparison, PEGMDA films templated nucleation of R, as well as Y, which is consistent with the observations with microgels. […] To verify this observation, the contribution from each crystal facet was quantified and listed the prominent ones in Table 12. […] Polymers with M=130, 200 g/mol favor R (111) and R (220). As M increases, percentage of R decreases and Y increases to become the dominant polymorph on M=575, 700 g/mol, which is contact with the polymer via Y (020) and/or (040) facet.
XRD patterns of ROY crystallized from bulk solution and on PEGDA films under the substantially similar conditions were obtained. Additional peaks observed from crystals templated by polymer films but not from bulk crystals were observed. Reference patterns were calculated from CSD using POWD-12++.
Analysis on the XRD data is carried out by normalizing the measured peak intensities Ip^i with the reference peak intensities Ibulk^i from the bulk sample, following the formula
[formula] where ηi is the percentage of crystals in orientation i, and p is short for polymer. Percentages are highlighted as bold for dominant orientations in each case.

[3] = Partition coefficients of CBZ and ROY in PEGMDA microgels from ethanol solutions; format: physicochemical; settings: for Partition coefficient κ (solute mass fraction in gel solution / bulk): ethanol solution
[4] = ROY polymorph frequency of occurrence; format: physicochemical; settings: vs bulk crystallization
Experimental: (§1) In each experiment, crystallization of pure forms of either Y (yellow prisms), R (red prisms) or ON (orange needles) were observed from ethanol solution stochastically (FIG. 30), and their frequencies of occurrence were calculated by conducting 50-150 experiments in each case (FIG. 31). Nucleation induction time data from bulk solution or with PEG130DA microgels were fitted with the stretched exponential model and the average induction time thus regressed represents an average of all forms (Table 10), since the frequencies of occurrence for R and ON were too low for separate statistical analysis. […] In the multi-exponential model, each exponential decay process may be better represented with a stretched exponential, however, a simple exponential suffices in this case and decent fit was obtained with R^2 very close to unity (Table 11).
In FIG. 31: Polymorph frequency of occurrence in 12 mg/ml ROY-ethanol solution with or without microgels of various mesh sizes (left) and at higher solution concentrations, C0 (right). Frequency of occurrence is calculated as the percentage of samples crystallized in a particular form within 1440 min out of the total number of samples. The analysis for 12 mg/ml solution is carried out previously. In summary, addition of PEGDA microgels accelerated crystallization of all three forms, Y, R and ON.

[5] = ROY; at the chosen experimental condition; cited from earlier work
[6] = ROY nucleation induction time with PEGMDA microgels in ethanol; format: physicochemical; settings: for τ(O): ROY orange needle form; for τ(R): ROY red form; for τ(Y): ROY yellow form
Experimental: as §1
Nucleation induction time statistics of ROY with or without the presence of PEGDA microgels were determined. For each type of samples, 50-100 experiments were performed to obtain the induction time statistics wherein P is the probability for observing no crystallization event within time t is estimated from the fraction of samples haven't crystallized at this time point. Either stretched exponential model or multi-exponential models were employed to fit the data (see Tables 10 and 11).
Induction time distribution data were fitted with stretched exponentials via nonlinear least square regression: P=exp[−(t/τ)^β], where P is the probability to observe no crystallization event within time t. τ is an average of induction times for all Y, R, ON forms.
Induction time distribution data were fitted with superposition of two or three exponentials via nonlinear least square regression. Two-exponential fit was employed for PEG200DA and PEG700DA samples: P=a·exp[−t/τ(Y)]+(1−a)·exp[−t/τ(R)], with τ(R) an average of forms R and O for the PEG700DA sample. Three-exponential fit was used for PEG400DA and PEG575DA samples: P=a·exp[−t/τ(Y)]+b·exp[−t/τ(R)]+(1−a−b)·exp[−t/τ(O)], where Y, R, and O represent the yellow, red and orange needle forms respectively. *τ, an average induction time of Form R and ON, given the lack of data points to distinguish the two.

[7] = PEGMDA polymer film M 130 g/mol
[8] = PEGMDA polymer film M 200 g/mol
[9] = PEGMDA polymer film M 400 g/mol
[10] = PEGMDA polymer film M 575 g/mol
[11] = PEGMDA polymer film M 700 g/mol

average induction time of R [1]: over 10000 min | Percentage of ROY crystals in orientation R (111) [2, 7]: 38.0% | Percentage of ROY crystals in orientation R (220) [2, 7]: 46.8% | Percentage of ROY crystals in orientation Y (020) [2, 7]: 7.5% | Percentage of ROY crystals in orientation Y (040) [2, 7]: 3.4% | Percentage of ROY crystals in orientation R (111) [2, 8]: 36.2% | Percentage of ROY crystals in orientation R (220) [2, 8]: 53.6% | Percentage of ROY crystals in orientation Y (020) [2, 8]: 3.5% | Percentage of ROY crystals in orientation Y (040) [2, 8]: 1.6% | Percentage of ROY crystals in orientation R (111) [2, 9]: 28.8% | Percentage of ROY crystals in orientation R (220) [2, 9]: 24.9% | Percentage of ROY crystals in orientation Y (020) [2, 9]: 23.6% | Percentage of ROY crystals in orientation Y (040) [2, 9]: 9.9% | Percentage of ROY crystals in orientation R (111) [2, 10]: 12.9% | Percentage of ROY crystals in orientation R (220) [2, 10]: 20.0% | Percentage of ROY crystals in orientation Y (020) [2, 10]: 26.9% | Percentage of ROY crystals in orientation Y (040) [2, 10]: 13.1% | Percentage of ROY crystals in orientation R (111) [2, 11]: 9.8% | Percentage of ROY crystals in orientation R (220) [2, 11]: 14.4% | Percentage of ROY crystals in orientation Y (020) [2, 11]: 50.9% | Percentage of ROY crystals in orientation Y (040) [2, 11]: 16.9% | ROY concentration in the gel phase relative to bulk solution ([3]; PEGMDA gels, ethanol): 6-11 times | Partition coefficient κ (solute mass fraction in gel solution / bulk) ([3]; PEGMDA microgels M 130 g/mol): 6.3 ± 0.2 | Partition coefficient κ (solute mass fraction in gel solution / bulk) ([3]; PEGMDA microgels M 200 g/mol): 6.1 ± 0.9 | Partition coefficient κ (solute mass fraction in gel solution / bulk) ([3]; PEGMDA microgels M 400 g/mol): 11.0 ± 0.4 | Partition coefficient κ (solute mass fraction in gel solution / bulk) ([3]; PEGMDA microgels M 575 g/mol): 11.3 ± 1.6 | Partition coefficient κ (solute mass fraction in gel solution / bulk) ([3]; PEGMDA microgels M 700 g/mol): 11.8 ± 1.1 | improvement of Form R frequency of occurrence by polymer microgels [4]: up to 20 times | time within which all nucleation of Y occurred ([6]; ROY Form Y, PEG200DA microgels): ≤ 100 min | τ(O) ([6]; PEG400DA microgels): 3300 min | τ(O) ([6]; PEG575DA microgels): 2900 min | τ(R) ([6]; PEG200DA microgels): 9000 ± 6000 min | τ(R) ([6]; PEG400DA microgels): 1600 ± 400 min | τ(R) ([6]; PEG575DA microgels): 200 min and 200 ± 20 min | τ(Y) ([6]; PEG200DA microgels): 26.0 ± 1.5 min | τ(Y) ([6]; PEG400DA microgels): 22.0 ± 0.6 min | τ(Y) ([6]; PEG575DA microgels): 10.0 ± 0.8 min | τ(Y) ([6]; PEG700DA microgels): 12.0 ± 1.2 min | average nucleation induction time τ (average of Y, R, ON forms) ([6]; ROY, Bulk ethanol solution): 10000 ± 2000 min | average nucleation induction time τ (average of Y, R, ON forms) ([6]; ROY, PEG130DA microgels): 4000 ± 750 min | τ(R), an average induction time of Form R and ON ([6]; ROY, PEG700DA microgels): 2600 ± 400 min
SMILES: Cc1cc(C#N)c(Nc2ccccc2[N+](=O)[O-])s1 [ROY, 5-methyl-2-[(2-nitrophenyl)amino]-3-thiophenecarbonitrile]
relative stability of the three observed polymorphs [5]: Y>ON>R
